Target: T1, Calpain-1 catalytic subunit (Homo sapiens, UniProt P07384)
T1 sequence (P07384 whole entry): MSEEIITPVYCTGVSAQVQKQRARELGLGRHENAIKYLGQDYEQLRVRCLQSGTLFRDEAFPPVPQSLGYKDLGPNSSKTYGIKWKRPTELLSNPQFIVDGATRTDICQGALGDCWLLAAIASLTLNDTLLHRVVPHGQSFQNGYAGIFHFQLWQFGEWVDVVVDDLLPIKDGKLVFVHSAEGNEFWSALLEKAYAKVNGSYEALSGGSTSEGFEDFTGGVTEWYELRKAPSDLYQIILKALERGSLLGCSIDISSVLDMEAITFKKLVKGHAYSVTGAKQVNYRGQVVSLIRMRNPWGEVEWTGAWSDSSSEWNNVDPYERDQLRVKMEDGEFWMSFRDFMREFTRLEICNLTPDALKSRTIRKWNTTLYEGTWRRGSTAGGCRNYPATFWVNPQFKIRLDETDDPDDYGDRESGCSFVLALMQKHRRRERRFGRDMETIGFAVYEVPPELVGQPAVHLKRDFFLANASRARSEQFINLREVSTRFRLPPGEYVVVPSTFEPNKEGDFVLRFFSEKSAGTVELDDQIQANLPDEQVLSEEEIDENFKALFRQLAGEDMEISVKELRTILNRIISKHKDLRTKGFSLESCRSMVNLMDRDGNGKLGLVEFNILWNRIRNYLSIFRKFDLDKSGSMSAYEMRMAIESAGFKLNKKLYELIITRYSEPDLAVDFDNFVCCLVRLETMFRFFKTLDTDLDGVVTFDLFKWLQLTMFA
Experiment: Inhibition of human erythrocytes mu-calpain

Row | Structure (SMILES) | IC50 [nM]
1 | O=C(CCC(=O)c1ccccc1O)N[C@@H](Cc1ccccc1)C(=O)C(=O)NCc1ccccc1 | 13800
2 | COc1ccc(C(=O)CCC(=O)N[C@@H](Cc2ccccc2)C(=O)C(N)=O)c(OC)c1 | 1180
3 | O=C(CCC(=O)c1ccc(O)cc1O)N[C@@H](Cc1ccccc1)C(=O)C(=O)NCc1ccccc1 | 5730
4 | COc1ccccc1C(=O)CCC(=O)N[C@@H](Cc1ccccc1)C(=O)C(N)=O | 540
5 | COc1ccc(OC)c(C(=O)CCC(=O)N[C@@H](Cc2ccccc2)C(=O)C(=O)NCCc2ccccc2)c1 | 2090
6 | COCOc1ccccc1C(=O)CCC(=O)N[C@@H](Cc1ccccc1)C(=O)C(=O)NCc1ccccc1 | 4290
7 | COc1ccc(CCNC(=O)C(=O)[C@H](Cc2ccccc2)NC(=O)CCC(=O)c2cc(OC)ccc2OC)cc1 | 950
8 | COCOc1cc(OC)ccc1C(=O)CCC(=O)N[C@@H](Cc1ccccc1)C(=O)C(=O)NCc1ccccc1 | 4250
9 | COc1ccc(CNC(=O)C(=O)[C@H](Cc2ccccc2)NC(=O)CCC(=O)c2cc(OC)ccc2OC)cc1 | 2350
10 | COc1ccc(OC)c(C(=O)CCC(=O)N[C@@H](Cc2ccccc2)C(=O)C(=O)NCc2ccc(OC)c(OC)c2)c1 | 1640
11 | COc1ccc(OC)c(CCCC(=O)N[C@@H](Cc2ccccc2)C(=O)C(=O)NCc2ccccc2)c1 | 8000
12 | COc1ccc(OC)c(C(=O)CCC(=O)N[C@@H](Cc2ccccc2)C(=O)C(N)=O)c1 | 520
13 | COc1ccc(C(=O)CCC(=O)N[C@@H](Cc2ccccc2)C(=O)C(=O)NCc2ccccc2)c(O)c1 | 13000

Second part, the compound after the results:

Row | IC50 [nM] | Structure (SMILES)
14 | 3770 | COc1ccc(OC)c(C(=O)CCC(=O)N[C@@H](Cc2ccccc2)C(=O)C(=O)NCc2ccccc2)c1
15 | 340 | COCOc1ccccc1C(=O)CCC(=O)N[C@@H](Cc1ccccc1)C(=O)C(N)=O
16 | 700 | COCOc1cc(OC)ccc1C(=O)CCC(=O)N[C@@H](Cc1ccccc1)C(=O)C(N)=O
17 | 1860 | COc1ccc(OC)c(CCCC(=O)N[C@@H](Cc2ccccc2)C(=O)C(N)=O)c1
18 | 6250 | O=C(CCC(=O)c1ccccc1)N[C@@H](Cc1ccccc1)C(=O)C(=O)NCc1ccccc1
19 | 3200 | NC(=O)C(=O)[C@H](Cc1ccccc1)NC(=O)CCC(=O)c1ccccc1
20 | 2130 | COc1ccc(OC)c(C(=O)CCC(=O)N[C@@H](Cc2ccccc2)C(=O)C(=O)NCCc2ccc(OC)c(OC)c2)c1
21 | 6160 | COc1ccc(C(=O)CCC(=O)N[C@@H](Cc2ccccc2)C(=O)C(=O)NCc2ccccc2)c(OC)c1
22 | 3330 | COc1ccccc1C(=O)CCC(=O)N[C@@H](Cc1ccccc1)C(=O)C(=O)NCc1ccccc1
